Results as given in paper PMC3274751 (ACS medicinal chemistry letters, 2011).

Columns and labels:
[1] = system: MeV-Alaska; assay: Viral CPE inhibition; conditions: compared with BM-1
[2] = system: Vero cells; assay: Cytotoxicity in Vero cells
[3] = system: actively dividing cells; conditions: cited from earlier work

Compound | fold reduction of potency relative to BM-1 [1] | acute cytotoxicity [2] | effect on cell proliferation [3]
COc1ccc(-n2c(SC(C)C(=O)Nc3nc(C)cs3)nc3ccccc32)cc1 (centres unmarked) [Compound 6m] | 10 fold |  | 
COc1ccc(-n2c(SC(C)C(=O)Nc3cc(C)no3)nc3ccccc32)cc1 (centres unmarked) [Compound 6n] | 2 fold |  | 
COc1ccc(-n2c(SC(C)C(=O)Nc3cc(C)nn3C)nc3ccccc32)cc1 (centres unmarked) [Compound 6j] | 2 fold |  | 
COc1ccc(-n2c(SC(C)C(=O)Nc3ccc(C)cc3Cl)nc3ccccc32)cc1 (centres unmarked) [Compound 6p] |  | does not display any detectable acute cytotoxicity | cytostatic effect
